From patent US12383526B2, “Optimized sigma-1 agonist method of responder selection and treatment” (ANAVEX LIFE SCIENCES CORP., priority 2018, dated 2025)

Test system: subjects with mild-to-moderate AD
Assay: ADCS-ADL (Activities of Daily Living) change from baseline, 57-week Phase 2a study and 208-week extension study
Assay type: in vivo, human
Set-up: key to unadjusted change in ADCS-ADL score, Mean ± Std. Dev: change from baseline on ADCS-ADL scale 0–78, higher = greater function
From the text: The present study integrates and analyzes data and samples from two consecutive clinical trials: 57-week study and 208-week study. 57-week study was a multicenter Phase 2a clinical trial of the drug ANAVEX2-73 that recruited a sample of 32 subjects with mild-to-moderate AD. It consisted of two parts: Part A was a simple randomized, open-label, two-period, cross-over, adaptive trial lasting up to 5 weeks. Each period involved one specific administration route and two possible dose levels: in one period the oral dose (30 mg or 50 mg) was administrated and in the other period an intravenous (IV) form (3 mg or 5 mg) was administered, making a total of 8 possible dose administration schemes in Part A (details available in FIG. 2A). The two periods were separated by a wash-out period of 12 days where no dose was given.
Part B, following immediately after Part A, was an open-label extension of the oral daily dose for an additional 52 weeks. The primary endpoint of 57-week study was to establish the safety and tolerability of the drug. Secondary endpoints aimed at establishing the relationship between dosing regimen and pharmacodynamics-exploratory efficacy outcomes of cognition and function. Cognition was assessed by the Mini Mental State Examination (MMSE), while functional abilities by the Alzheimer's Disease Co-operative Study—Activities of Daily Living Inventory (ADCS-ADL). Additional cognitive measures included the Cogstate Brief Battery (CBB), and functional measures of Electroencephalography and Event-Related Potential (EEG and ERP). Part B continued an adaptive oral administration scheme. Table 12 summarizes mean oral dose administration during the 57-week study study.
Due to favorable safety and tolerability profile of the 57-week study (Table 2), and in response to requests from patients and caregivers, a 208-week open-label extension study (208-week study) was carried out immediately after completion of 57-week study Part B. 208-week study enrolled the 24 subjects who completed Part B and applied similarly an adaptive daily oral administration scheme. ANAVEX2-73-003 involves continuous evaluation of safety and efficacy as measured by the MMSE and ADCS-ADL. At week 148 (interim time point for analyses), data on the subjects remaining in the study (n=21) was analyzed for efficacy outcomes. This report was drafted using data available at week 148, while ANAVEX2-73-003 is still ongoing.
Exploratory clinical efficacy in this study was defined as change from baseline of each patient's cognitive (MMSE) and functional ability (ADCS-ADL) scores. The MMSE57 is a widely used, validated instrument in clinical AD research, including as a cognitive outcome measure in drug trials. The range of the scale is from 0 to 30, with a higher score indicating higher cognitive function. The ADCS-ADL58 is undertaken in a structured caregiver interview format and assesses performance in activities of daily living of patients with AD. The scale is from 0 to 78, with a higher score indicating greater function. The ADCS-ADL has shown to have good test-retest reliability 59. The MMSE and the ADCS-ADL were assessed during pre-specified clinical site visits across 14 different time points during the 57-week study (Weeks 0 and 5 in Part A; Weeks 17, 31, 41, 53, and 57 in Part B), and 208-week study (Weeks 70, 83, 96, 109, 122, 135, and 148) studies.
Corresponding Delta scores were calculated using the difference between values at each visit and at baseline for each individual patient, with a focus on Week 57. In addition, to lower the impact of noise in MMSE and ADCS-ADL scores, a Slope was estimated using a linear regression across all available time points for each individual patient. The derived scores describe the progression of exploratory efficacy data from baseline at several specific time points (Deltas) and over a set period of time (Slope). […]

CN(C)CC1CCOC1(c1ccccc1)c1ccccc1.Cl (centres unmarked) [ANAVEX2-73, tetrahydro-N,N-dimethyl-2,2-diphenyl-3-furanmethanamine hydrochloride]
ADCS-ADL Mean Δ at 57 weeks (Absence of COMT_L146fs variant & Baseline MMSE ≥20, N 11): −0.63 ± 5.33
ADCS-ADL Mean Δ at 57 weeks (Absence of COMT_L146fs variant, N 16): −2.37 ± 6.96
ADCS-ADL Mean Δ at 57 weeks (Absence of SIGMAR1_Q2P variant & Absence of COMT_L145fs variant & Baseline MMSE ≥20, N 10): −0.30 ± 5.50
ADCS-ADL Mean Δ at 57 weeks (Absence of SIGMAR1_Q2P variant, N 16): −3.31 ± 7.64
ADCS-ADL Mean Δ at 57 weeks (Absence of SIGNAR1_Q2P variant & Baseline MMSE ≥20, N 11): −1.27 ± 6.13
unadjusted change in ADCS-ADL score, Mean ± Std. Dev (All Patients (N = 21), Week 0): 0 ± 0
unadjusted change in ADCS-ADL score, Mean ± Std. Dev (All Patients (N = 21), Week 5): −1.65 ± 6.71
unadjusted change in ADCS-ADL score, Mean ± Std. Dev (All Patients (N = 21), Week 17): −1.33 ± 3.85
unadjusted change in ADCS-ADL score, Mean ± Std. Dev (All Patients (N = 21), Week 31): −3.60 ± 8.09
unadjusted change in ADCS-ADL score, Mean ± Std. Dev (All Patients (N = 21), Week 41): −3.95 ± 6.34
unadjusted change in ADCS-ADL score, Mean ± Std. Dev (All Patients (N = 21), Week 53): −5.29 ± 7.47
unadjusted change in ADCS-ADL score, Mean ± Std. Dev (All Patients (N = 21), Week 57): −5.24 ± 8.42
unadjusted change in ADCS-ADL score, Mean ± Std. Dev (All Patients (N = 21), Week 70): −8.81 ± 10.90
unadjusted change in ADCS-ADL score, Mean ± Std. Dev (All Patients (N = 21), Week 83): −9.38 ± 12.69
unadjusted change in ADCS-ADL score, Mean ± Std. Dev (All Patients (N = 21), Week 96): −14.52 ± 15.61
unadjusted change in ADCS-ADL score, Mean ± Std. Dev (All Patients (N = 21), Week 109): −14.25 ± 14.56
unadjusted change in ADCS-ADL score, Mean ± Std. Dev (All Patients (N = 21), Week 122): −17.84 ± 18.89
unadjusted change in ADCS-ADL score, Mean ± Std. Dev (All Patients (N = 21), Week 135): −20.29 ± 18.37
unadjusted change in ADCS-ADL score, Mean ± Std. Dev (All Patients (N = 21), Week 148): −21.16 ± 17.73
ADCS-ADL Mean Δ at 57 weeks (All, N 21): −5.19 ± 8.46
ADCS-ADL Mean Δ at 57 weeks (Baseline MMSE ≥20, N 13): −2.00 ± 5.93
unadjusted change in ADCS-ADL score, Mean ± Std. Dev (Group1 (n 2), Week 0): 0.00 ± 0.00
unadjusted change in ADCS-ADL score, Mean ± Std. Dev (Group1 (n 2), Week 5): 6.50 ± 9.19
unadjusted change in ADCS-ADL score, Mean ± Std. Dev (Group1 (n 2), Week 17): 4.50 ± 0.71
unadjusted change in ADCS-ADL score, Mean ± Std. Dev (Group1 (n 2), Week 31): 6.50 ± 3.54
unadjusted change in ADCS-ADL score, Mean ± Std. Dev (Group1 (n 2), Week 41): 4.50 ± 0.71
unadjusted change in ADCS-ADL score, Mean ± Std. Dev (Group1 (n 2), Week 53): 5.00 ± 1.41
unadjusted change in ADCS-ADL score, Mean ± Std. Dev (Group1 (n 2), Week 57): 6.00 ± 2.83
unadjusted change in ADCS-ADL score, Mean ± Std. Dev (Group1 (n 2), Week 70): 6.00 ± 2.83
unadjusted change in ADCS-ADL score, Mean ± Std. Dev (Group1 (n 2), Week 83): 4.50 ± 2.12
unadjusted change in ADCS-ADL score, Mean ± Std. Dev (Group1 (n 2), Week 96): 5.50 ± 2.12
unadjusted change in ADCS-ADL score, Mean ± Std. Dev (Group1 (n 2), Week 109): 4.00 ± 0.00
unadjusted change in ADCS-ADL score, Mean ± Std. Dev (Group1 (n 2), Week 122): 6.00 ± 2.83
unadjusted change in ADCS-ADL score, Mean ± Std. Dev (Group1 (n 2), Week 135): 6.00 ± 2.83
unadjusted change in ADCS-ADL score, Mean ± Std. Dev (Group1 (n 2), Week 148): 7.00 ± 4.24
unadjusted change in ADCS-ADL score, Mean ± Std. Dev (Group2 (n 6), Week 0): 0.00 ± 0.00
unadjusted change in ADCS-ADL score, Mean ± Std. Dev (Group2 (n 6), Week 5): 0.83 ± 6.59
unadjusted change in ADCS-ADL score, Mean ± Std. Dev (Group2 (n 6), Week 17): 1.33 ± 2.80
unadjusted change in ADCS-ADL score, Mean ± Std. Dev (Group2 (n 6), Week 31): 0.33 ± 5.39
unadjusted change in ADCS-ADL score, Mean ± Std. Dev (Group2 (n 6), Week 41): 0.50 ± 4.09
unadjusted change in ADCS-ADL score, Mean ± Std. Dev (Group2 (n 6), Week 53): 0.50 ± 4.18
unadjusted change in ADCS-ADL score, Mean ± Std. Dev (Group2 (n 6), Week 57): 1.83 ± 3.66
unadjusted change in ADCS-ADL score, Mean ± Std. Dev (Group2 (n 6), Week 70): 0.33 ± 4.93
unadjusted change in ADCS-ADL score, Mean ± Std. Dev (Group2 (n 6), Week 83): −0.67 ± 5.85
unadjusted change in ADCS-ADL score, Mean ± Std. Dev (Group2 (n 6), Week 96): −2.50 ± 7.71
unadjusted change in ADCS-ADL score, Mean ± Std. Dev (Group2 (n 6), Week 109): −3.83 ± 7.96
unadjusted change in ADCS-ADL score, Mean ± Std. Dev (Group2 (n 6), Week 122): −3.00 ± 6.72
unadjusted change in ADCS-ADL score, Mean ± Std. Dev (Group2 (n 6), Week 135): −4.17 ± 10.42
unadjusted change in ADCS-ADL score, Mean ± Std. Dev (Group2 (n 6), Week 148): −8.17 ± 15.96
unadjusted change in ADCS-ADL score, Mean ± Std. Dev (Group 3 (n 11), Week 0): 0.00 ± 0.00
unadjusted change in ADCS-ADL score, Mean ± Std. Dev (Group 3 (n 11), Week 5): −0.09 ± 6.32
unadjusted change in ADCS-ADL score, Mean ± Std. Dev (Group 3 (n 11), Week 17): 0.09 ± 3.45
unadjusted change in ADCS-ADL score, Mean ± Std. Dev (Group 3 (n 11), Week 31): −1.82 ± 5.71
unadjusted change in ADCS-ADL score, Mean ± Std. Dev (Group 3 (n 11), Week 41): −2.27 ± 6.40
unadjusted change in ADCS-ADL score, Mean ± Std. Dev (Group 3 (n 11), Week 53): −1.73 ± 5.61
unadjusted change in ADCS-ADL score, Mean ± Std. Dev (Group 3 (n 11), Week 57): −1.36 ± 6.09
